Assay results published in patent publication US7666390B2, “DTPA derivatives and metal complexes thereof, and radiation source and contrast agent including the metal complexes” (Korea Atomic Energy Research Institute, priority 2005, dated 2010).

Experiments:
[1] = Urinary excretion of the radioactive metal (^99mTc) complex in animals, gamma camera imaging and renal time activity curves; assay type: in vivo, rabbits (New Zealand White); conditions: male rabbits; for time to achieve maximum activity (Tmax) / time to eliminate half of the maximum activity (T1/2): ear vein injection 1.0±0.1 mCi, from ROI time activity curve
Experimental: (§1) Male rabbits (New Zealand White) were anesthetized by the intramuscular injection of 25 mg/kg of Ketamine (Yuhan Corporation, Korea) and 6 mg/kg of Rompun (Bayer Korea), and then received through the ear vein 1.0±0.1 mCi of the ^99mTc-DTPA derivative complex, ^99mTc-DTPA-mono(3-amido-2,4,6-triiodobenzoic acid). The behavior of the drug was monitored for 30 min by scanning the whole body of rabbits using a gamma camera (SIMENSE, Germany). The gamma camera was equipped with a parallel hole collimator, and was set at an energy level of 140 keV to obtain images.
In addition, regions of interest (ROIs) were created around the right and left kidneys to produce time activity curves. From the time activity curves, time to achieve maximum activity (Tmax) and time to eliminate half of the maximum activity (T1/2) for each kidney were calculated using a computer system (SINCTRON IV, Germany), and the results are given in FIG. 4.

[2] = Urinary excretion of the radioactive metal (^166Ho) complex in animals, gamma camera imaging and renal time activity curves; assay type: in vivo, rabbits (New Zealand White); conditions: male rabbits; for half time of the maximum activity (T1/2) / time to maximum activity (Tmax): ear vein injection 3.0±0.2 mCi, from ROI time activity curve
Experimental: as §1, with “by” for “by the”, “3.0±0.2” for “1.0±0.1”, “^166Ho-DTPA-bis(5-amido-2,4,6-triiodoisophthalic” for “the ^99mTc-DTPA derivative complex, ^99mTc-DTPA-mono(3-amido-2,4,6-triiodobenzoic”, “81 keV. At this energy level, images were obtained using a medium-energy collimator with a window width of 20%.” for “140 keV to obtain images.”
In addition, regions of interest (ROIs) were created around the right and left kidneys to produce time activity curves. From the time activity curves, time to maximum activity (Tmax) and half time of the maximum activity (T1/2) for each kidney were calculated using a computer system (SINCTRON IV, Germany), and the results are given in FIG. 6.

Substance | radioactivity in the kidneys ([1]; 30 min after injection) | time to achieve maximum activity (Tmax) ([1]; left kidney) [min] | time to eliminate half of the maximum activity (T1/2) ([1]; left kidney) [min] | time from injection by which mostly excreted via the kidneys and bladder ([1]; ear vein injection, whole body gamma camera scan for 30 min, 140 keV) [min] | time to achieve maximum activity (Tmax) ([1]; right kidney) [min] | time to eliminate half of the maximum activity (T1/2) ([1]; right kidney) [min] | radioactivity in the kidneys ([2]; 30 min after injection) | half time of the maximum activity (T1/2) ([2]; left kidney) [min] | time to maximum activity (Tmax) ([2]; left kidney) [min] | time from injection by which mostly excreted via the kidneys and bladder ([2]; ear vein injection, whole body gamma camera scan for 30 min, 81 keV) [min] | half time of the maximum activity (T1/2) ([2]; right kidney) [min] | time to maximum activity (Tmax) ([2]; right kidney) [min]
^99mTc-DTPA-mono(3-amido-2,4,6-triiodobenzoic acid) | decrease to a level near the non-specific background signal | 1 | 5 | ≤ 30 | 1 | 5.5 |  |  |  |  |  | 
^166Ho-DTPA-bis(5-amido-2,4,6-triiodoisophthalic acid) |  |  |  |  |  |  | decrease to a level near the non-specific background signal | 6.5 | 1.5 | ≤ 30 | 7.5 | 1.75
